From US20030232884A1, “New pharmaceutical formulation” (Critical Therapeutics, Inc., priority 2002, published 2003)

Assay: Stability of ethyl pyruvate in three formulations as measured by pH change over time
Type: physicochemical
Experimental: Formulations comprising ethyl pyruvate at various concentrations ([…]) were prepared by dissolving ethyl pyruvate in either commercially available Ringer's Lactate solution (potassium chloride (0 to about 4 mM), sodium chloride (about 100 to about 156 mM), calcium chloride (about 2.5 mM to about 3.0 mM), and sodium lactate (about 25 mM to about 30 mM)) or Ringer-like solution (potassium chloride (0 to about 4 mM), sodium chloride (about 100 to about 156 mM) and calcium chloride (about 2.5 mM to about 3.0 mM)), or Intralipid™ (1 000 mL contain: purified soybean oil 100-300 g, purified egg phospholipids 12 g, glycerol anhydrous 22 g, water for injection q.s. ad 1 000 mL. pH was adjusted with sodium hydroxide to pH approximately 8. Osmolality was about 300 mOsm/kg water). Acidity of each solution was measured at 0, 5, 30 and 60 minutes, 2, 4, 24, and 48 hours after dissolution of ethyl pyruvate.

## CCOC(=O)C(C)=O [Ethyl Pyruvate, ethyl pyruvate]
Intralipid, EP 1 %, 0 min after dissolution
  pH: 6.8
Intralipid, EP 1 %, 5 min after dissolution
  pH: 6.8
Intralipid, EP 1 %, 30 min after dissolution
  pH: 6.8
Intralipid, EP 1 %, 60 min after dissolution
  pH: 6.5
Intralipid, EP 1 %, 2 h after dissolution
  pH: 6.5
Intralipid, EP 1 %, 4 h after dissolution
  pH: 6.5
Intralipid, EP 1 %, 24 h after dissolution
  pH: 6.5
Intralipid, EP 1 %, 48 h after dissolution
  pH: 6.5
Intralipid, EP 5 %, 0 min after dissolution
  pH: 6.8
Intralipid, EP 5 %, 5 min after dissolution
  pH: 6.8
Intralipid, EP 5 %, 30 min after dissolution
  pH: 6.5
Intralipid, EP 5 %, 60 min after dissolution
  pH: 6.0
Intralipid, EP 5 %, 2 h after dissolution
  pH: 6.0
Intralipid, EP 5 %, 4 h after dissolution
  pH: 6.0
Intralipid, EP 5 %, 24 h after dissolution
  pH: 5.5
Intralipid, EP 5 %, 48 h after dissolution
  pH: 5.0
Intralipid, EP 10 %, 0 min after dissolution
  pH: 6.8
Intralipid, EP 10 %, 5 min after dissolution
  pH: 6.5
Intralipid, EP 10 %, 30 min after dissolution
  pH: 6.0
Intralipid, EP 10 %, 60 min after dissolution
  pH: 6.0
Intralipid, EP 10 %, 2 h after dissolution
  pH: 6.0
Intralipid, EP 10 %, 4 h after dissolution
  pH: 5.5
Intralipid, EP 10 %, 24 h after dissolution
  pH: 4.0
Intralipid, EP 10 %, 48 h after dissolution
  pH: 4.0
Lactated Ringers Balanced Salt Solution, 1%, 5% and 10% by weight, over a 48 hour period
  drop in pH: relatively reduced drop in pH
Ringer' lactate, EP 1 %, 0 min after dissolution
  pH: 6.0
Ringer' lactate, EP 1 %, 5 min after dissolution
  pH: 6.0
Ringer' lactate, EP 1 %, 30 min after dissolution
  pH: 5.5
Ringer' lactate, EP 1 %, 60 min after dissolution
  pH: 5.5
Ringer' lactate, EP 1 %, 2 h after dissolution
  pH: 5.2
Ringer' lactate, EP 1 %, 4 h after dissolution
  pH: 5.2
Ringer' lactate, EP 1 %, 24 h after dissolution
  pH: 5.2
Ringer' lactate, EP 1 %, 48 h after dissolution
  pH: 5.2
Ringer' lactate, EP 5 %, 0 min after dissolution
  pH: 6.0
Ringer' lactate, EP 5 %, 5 min after dissolution
  pH: 5.5
Ringer' lactate, EP 5 %, 30 min after dissolution
  pH: 5.3
Ringer' lactate, EP 5 %, 60 min after dissolution
  pH: 5.2
Ringer' lactate, EP 5 %, 2 h after dissolution
  pH: 5.2
Ringer' lactate, EP 5 %, 4 h after dissolution
  pH: 5.2
Ringer' lactate, EP 5 %, 24 h after dissolution
  pH: 5.2
Ringer' lactate, EP 5 %, 48 h after dissolution
  pH: 5.2
Ringer' lactate, EP 10 %, 0 min after dissolution
  pH: 6.0
Ringer' lactate, EP 10 %, 5 min after dissolution
  pH: 5.3
Ringer' lactate, EP 10 %, 30 min after dissolution
  pH: 5.3
Ringer' lactate, EP 10 %, 60 min after dissolution
  pH: 5.2
Ringer' lactate, EP 10 %, 2 h after dissolution
  pH: 5.2
Ringer' lactate, EP 10 %, 4 h after dissolution
  pH: 5.2
Ringer' lactate, EP 10 %, 24 h after dissolution
  pH: 5.2
Ringer' lactate, EP 10 %, 48 h after dissolution
  pH: 5.0
Ringer' solution (no lactate), EP 1 %, 0 min after dissolution
  pH: 6.5
Ringer' solution (no lactate), EP 1 %, 5 min after dissolution
  pH: 6.5
Ringer' solution (no lactate), EP 1 %, 30 min after dissolution
  pH: 6.5
Ringer' solution (no lactate), EP 1 %, 60 min after dissolution
  pH: 5.5
Ringer' solution (no lactate), EP 1 %, 2 h after dissolution
  pH: 5.5
Ringer' solution (no lactate), EP 1 %, 4 h after dissolution
  pH: 5.5
Ringer' solution (no lactate), EP 1 %, 24 h after dissolution
  pH: 5.5
Ringer' solution (no lactate), EP 1 %, 48 h after dissolution
  pH: 5.5
Ringer' solution (no lactate), EP 5 %, 0 min after dissolution
  pH: 6.5
Ringer' solution (no lactate), EP 5 %, 5 min after dissolution
  pH: 6.0
Ringer' solution (no lactate), EP 5 %, 30 min after dissolution
  pH: 6.0
Ringer' solution (no lactate), EP 5 %, 60 min after dissolution
  pH: 5.2
Ringer' solution (no lactate), EP 5 %, 2 h after dissolution
  pH: 5.2
Ringer' solution (no lactate), EP 5 %, 4 h after dissolution
  pH: 4.0
Ringer' solution (no lactate), EP 5 %, 24 h after dissolution
  pH: 2.0
Ringer' solution (no lactate), EP 5 %, 48 h after dissolution
  pH: 2.0
Ringer' solution (no lactate), EP 10 %, 0 min after dissolution
  pH: 6.5
Ringer' solution (no lactate), EP 10 %, 5 min after dissolution
  pH: 5.5
Ringer' solution (no lactate), EP 10 %, 30 min after dissolution
  pH: 5.3
Ringer' solution (no lactate), EP 10 %, 60 min after dissolution
  pH: 5.2
Ringer' solution (no lactate), EP 10 %, 2 h after dissolution
  pH: 5.2
Ringer' solution (no lactate), EP 10 %, 4 h after dissolution
  pH: 2.0
Ringer' solution (no lactate), EP 10 %, 24 h after dissolution
  pH: 2.0
Ringer' solution (no lactate), EP 10 %, 48 h after dissolution
  pH: 2.0
In Ringer's Lactate solution
  stability as indicated by the pH readings: remains stable
